Measured values from paper PMC12386606, “Evaluation of the In Vitro Blood–Brain Barrier Transport of Ferula persica L. Bioactive Compounds” (International Journal of Molecular Sciences, 2025).
Where two headings read alike, the source gives them in different places.

What was measured:
[1] = Parallel artificial membrane permeability assay for the blood–brain barrier (PAMPA-BBB); details: for AerExt log Pe: compound within AerExt donor solution; for AerExt log Pe / RootExt log Pe: 37 °C, 4 h, PBS pH 7.4, n.q. = not quantified in the acceptor plate; for RootExt log Pe: compound within RootExt donor solution; for AerExt Cross BBB Potential: compound within AerExt; for AerExt Cross BBB Potential / RootExt Cross BBB Potential: PAMPA-BBB; for Papp at 4 h: PAMPA, pH 7.4; for RootExt Cross BBB Potential: compound within RootExt
Method: (§1) The permeability of bioactive compounds from AerExt and RootExt across the BBB was assessed using the PAMPA-BBB assay, following the methodology described by [11]. Firstly, the BBB solution was prepared by dissolving 8 mg of PBL and 4 mg of cholesterol in 600 μL of n-dodecane. The initial donor solution was prepared by mixing 1 mL of AerExt or RootExt (at 10 mg mL^−1 in EtOH) with 1 mL of buffer (PBS, pH = 7.4, 10 mM). The filter membrane of the donor plate was coated with 5 μL of BBB solution. The acceptor plate was filled with 350 μL of buffer, and the donor plate was carefully placed on top of the acceptor plate to form a “sandwich-like” assembly. Subsequently, 350 μL of the donor solution was added to the donor plate, which was then covered and incubated at 37 °C for 4 h in the dark. After the incubation time, 300 μL of the solution was collected from each plate, transferred into separate vials, and evaporated using a SpeedVac system at 40 °C under 13 mbar pressure. The dried acceptor and donor solutions were dissolved in 50 μL of pure EtOH before being subjected to HPLC-Q-TOF-MS/MS and GC-Q-TOF-MS analysis. Permeability (Pe) across the PAMPA-BBB of the bioactive compound was calculated according to Equation (1) [54], with modifications in concentration rates.Pe = −ln[1 − CA(t)/Cequilibrium]/(A × (1/VD + 1/VA) × t)(1)
(§2) Cequilibrium was calculated according to Equation (2):Cequilibrium = [CD(t) × VD + CA(t) × VA]/(VD + VA)(2)
(§3) The HPLC-MS and GC-MS chromatograms were processed using the Agilent Mass Hunter Qualitative software (version B.10.0) to verify the retention time and exact mass of the compounds previously reported by us [25] and to extract their peak area to calculate the BBB permeability.

[2] = system: HBMEC cells; experiment: Blood–brain barrier transport study in HBMEC Transwell monolayer; details: for crossing of the HBMEC-BBB: AerExt 40 µg mL^−1 / RootExt 20 µg mL^−1, 2, 4, 24 h; for RootExt Te (%) ± SD 2 h / RootExt Te (%) ± SD 4 h / RootExt Te (%) ± SD 24 h: RootExt 20 µg mL^−1 apical; for RootExt Te (%) ± SD 2 h / RootExt Te (%) ± SD 4 h / RootExt Te (%) ± SD 24 h / AerExt Te (%) ± SD 2 h / AerExt Te (%) ± SD 4 h / AerExt Te (%) ± SD 24 h: n.q. = not quantified in the basolateral compartment; for AerExt Te (%) ± SD 2 h / AerExt Te (%) ± SD 4 h / AerExt Te (%) ± SD 24 h: AerExt 40 µg mL^−1 apical
Method: After the toxicity evaluation, the HBMEC cell line was also used as a simplified in vitro model of the BBB endothelium. Cells were seeded at a density of 1.6 × 10^5 cells/cm^2 in 12-well Transwell® plates (Corning Costar Corp., Corning, USA) with a pore diameter of 0.4 μm, pre-coated with type I rat tail collagen (100 μg mL^−1) [55]. The culture medium was renewed every 2 days until a monolayer cell structure was formed (see Supplementary Figure S2), and transport experiments were initiated after 10 days. In transport experiments, the medium in the apical (upper) compartment of the Transwell system was removed, and 0.5 mL of AerExt or RootExt at a concentration of 40 μg mL^−1 and 20 μg mL^−1, respectively, was added to these compartments (applied in duplicate). Also, a medium containing 0.4% (v/v) ethanol was used as control group. The basolateral (lower) compartments were filled with 1.5 mL of fresh culture medium. The cells were incubated under these conditions for 2, 4, and 24 h.
At the end of the incubation periods, media samples were collected from both chambers and lyophilized using a freeze-drying system from Martin Christ (Osterode am Harz, Germany). The samples were stored at −80 °C until analysis. The collected samples were subjected to chemical analyses to evaluate the ability of bioactive compounds contained in the extracts to pass through the cell monolayer.
The transport efficiency (Te) of bioactive substances was calculated based on Equation (3), described by [56]:Te (%) = CLower/CUpper × 100(3)
This calculation was performed to understand whether the compound crosses the cell layer and how efficiently it is transported.
For this purpose, 0.2 mL of cold water (H2O) was added to the samples, and the samples were vortexed for 10 s. Then, 0.8 mL of cold methanol was added and vortexed again for 10 s. Then, the mixture was centrifuged at 14,000 rpm for 5 min, and the supernatant was carefully transferred to a 1.5 mL Eppendorf tube and dried in a SpeedVac device at 40 °C and 13 bar pressure. Finally, the dried samples were resuspended in 25 μL of pure ethanol for their subsequent analysis.
For HPLC-Q-TOF MS/MS analysis, aliquots of 2 μL were injected into an HPLC model 1290 coupled to a Q-TOF series 6540 (Agilent Technologies, Waldbronn, Germany). For GC-Q-TOF MS analysis, aliquots of 1 μL were injected with a split ratio of 1:10 into a GC model 7890B coupled to a Q-TOF series 7200 (Agilent Technologies, Waldbronn, Germany). The HPLC-MS and GC-MS chromatograms were processed using the Agilent Mass Hunter Qualitative software (version B.10.0) to verify the retention time and exact mass of the compounds previously reported by us [25] and to extract their peak area to calculate the BBB permeability.

[3] = oil/water partition coefficient, ref PubChem, cited from earlier work
[4] = system: SH-SY5Y cells; experiment: Neuroprotection against H2O2, L-glutamate and Aβ1-42 in differentiated SH-SY5Y cells (MTT); details: 24 h
Method: To investigate the neuroprotective potential of AerExt or RootExt, oxidative damage (H2O2), excitotoxic stress (L-glutamate), and Aβ1-42 toxicity were induced in cells and evaluated as described by [58]. Briefly, SH-SY5Y cells were plated as described above, and 24 h after cell attachment, cells were pre-treated with non-toxic concentrations of AerExt or RootExt (40 μg mL^−1 for AerExt; 20 μg mL^−1 for RootExt) for 24 h. In the control group, DMEM/F12 cell medium supplemented with 1% FBS, 100 U mL^−1 penicillin, 100 μg mL^−1 streptomycin, 250 ng mL^−1 antimycotic, and 0.4% ethanol was used. The next day, cells were incubated with either cell medium alone (control), H2O2 (65 μM), L-glutamate (23 mM), or Aβ1-42 (30 μM) for 24 h. Cell viability was assessed by MTT assay at the end of the experiments. All the experiments were repeated three times, and a T-test was applied between the treated and control conditions considering statistically significant differences when p < 0.05.

[5] = PAMPA
Method: as §1, §2, §3

AerExt log Pe [1]	RootExt Te (%) ± SD 2 h [2]	AerExt Te (%) ± SD 2 h [2]	AerExt Te (%) ± SD 4 h [2]	RootExt log Pe [1]	Compound	log p ([3]; Table 1)	AerExt Te (%) ± SD 24 h [2]	also measured
n.q.	n.q.	–	–	–	Oc1ccc(O)c(O)c1 [1,2,4-benzenetriol]	1.5	–	crossing of the HBMEC-BBB [2]: could not cross the HBMEC-BBB; RootExt Te (%) ± SD 4 h [2]: n.q.; RootExt Te (%) ± SD 24 h [2]: n.q.
n.q.	21.4 ± 5.3%	17.5 ± 3.5%	9.6 ± 0.6%	–	O=C(O)c1cccc(O)c1O [2,3-dihydroxybenzoic acid]	1.2	14.0 ± 3.9%	RootExt Te (%) ± SD 4 h [2]: 23.9 ± 4.4%; RootExt Te (%) ± SD 24 h [2]: 214.1 ± 45.4%; log p ([3]; Table 2): 1.5
−5.68	n.q.	–	–	−5.22	O=C(O)C=Cc1cc(O)ccc1O [2,5-dihydroxycinnamic acid]	1.2	–	crossing of the HBMEC-BBB [2]: could not cross the HBMEC-BBB; RootExt Te (%) ± SD 4 h [2]: n.q.; RootExt Te (%) ± SD 24 h [2]: n.q.
n.q.	n.q.	n.q.	n.q.	n.q.	O=C(O)/C=C/c1ccc(O)cc1 [4-coumaric acid]	1.5	n.q.	RootExt Te (%) ± SD 4 h [2]: n.q.; RootExt Te (%) ± SD 24 h [2]: n.q.
n.q.	n.q.	n.q.	n.q.	–	COc1ccc(C=O)c(O)c1 [4-methoxysalicylaldehyde]	1.5	n.q.	crossing of the HBMEC-BBB [2]: could not cross the HBMEC-BBB
–	–	n.q.	n.q.	n.q.	O=c1cc(-c2ccc(O)cc2)oc2cc(O[C@@H]3O[C@H](CO)[C@@H](O)[C@H](O)[C@H]3O)cc(O)c12 [Apigenin 7-glucoside]	−0.1	–	AerExt Cross BBB Potential [1]: + (log Pe < −6.5); crossing of the HBMEC-BBB [2]: could not cross the HBMEC-BBB
–	–	–	–	–	OO [H2O2]	–	–	cell viability after neurotoxic agent, compared with control ([4]; H2O2 65 µM): 48%
–	–	–	–	–	Cc1nccc2c1[nH]c1ccccc12 [Harman]	3.6	–	AerExt Cross BBB Potential [5]: ++ (key: –: not quantified in acceptor; +: log Pe < −6.5; ++: −6.5 < log Pe < −5.5; +++: −5.5 < log Pe < −4.5)
–	–	–	–	–	COc1c(O)cc2oc(-c3ccc(O[C@@H]4O[C@H](CO)[C@@H](O)[C@H](O)[C@H]4O)cc3)cc(=O)c2c1O [Hispidulin 4′-glucoside]	–	–	AerExt Cross BBB Potential [5]: + (key: –: not quantified in acceptor; +: log Pe < −6.5; ++: −6.5 < log Pe < −5.5; +++: −5.5 < log Pe < −4.5); AerExt log Pe ([5]; pH 7.4): −6.14
–	–	–	–	–	N[C@@H](CCC(=O)O)C(=O)O [L-glutamate]	–	–	viability at 23000 µM ([4]; Homo sapiens, read-out: cell viability after neurotoxic agent, compared with control): 47%
–	n.q.	n.q.	n.q.	–	COc1ccc(-c2cc(=O)c3c(OC)c(OC)c(OC)c(OC)c3o2)cc1OC [Nobiletin]	3.0	n.q.	Papp at 4 h [1]: 49 ×10⁻⁶ cm/s; crossing of the HBMEC-BBB [2]: could not cross the HBMEC-BBB; RootExt Te (%) ± SD 4 h [2]: n.q.; RootExt Te (%) ± SD 24 h [2]: n.q.
n.q.	n.q.	–	–	n.q.	CC(C)[C@@H]1CC[C@@]2(C)[C@H](O)CC[C@](C)(O)[C@H]2[C@@H]1O[C@@H]1O[C@H](CO)[C@@H](O)[C@H](O)[C@H]1O [Ophiopogonoside A]	0.4	–	RootExt Te (%) ± SD 4 h [2]: n.q.; RootExt Te (%) ± SD 24 h [2]: 66.0 ± 3.2%
n.q.	–	–	–	n.q.	COc1cc([C@H]2OC[C@H]3[C@@H]2CO[C@@H]3c2cc(OC)c(O[C@@H]3O[C@H](CO)[C@@H](O)[C@H](O)[C@H]3O)c(OC)c2)cc(OC)c1O [Syringaresinol glucoside]	−1.4	–	–
−5.35	–	–	–	−5.59	C[C@@H]1CCC=C2CC[C@@H](C(C)(C)O)C[C@]21C [Valerianol]	3.5	–	RootExt Cross BBB Potential [1]: + (log Pe < −6.5)
–	–	–	–	–	CC1=C2C[C@H](C(C)(C)O)CC[C@]2(C)CCC1 [epi-γ-eudesmol]	2.9	–	AerExt Cross BBB Potential [1]: + (log Pe < −6.5); RootExt Cross BBB Potential [1]: + (log Pe < −6.5)
–	–	–	–	–	COc1cc(/C=C/CO)cc(OC)c1O [trans-sinapyl alcohol]	1.3	–	RootExt Cross BBB Potential [1]: + (log Pe < −6.5)
–	–	–	–	–	CC(C)=CCC[C@](C)(O)[C@@H]1CC=C(C)CC1 [α-bisabolol]	1.3	–	AerExt Cross BBB Potential [1]: + (log Pe < −6.5); RootExt Cross BBB Potential [1]: + (log Pe < −6.5)
n.q.	–	–	–	n.q.	C=CC1(C)CCC(=C(C)C)CC1C(=C)C (stereo not drawn) [γ-elemene]	5.4	–	–
–	–	–	–	–	CC1=C2C[C@H](C(C)(C)O)CC[C@@]2(C)CCC1 [γ-eudesmol]	3.7	–	AerExt Cross BBB Potential [1]: + (log Pe < −6.5); RootExt Cross BBB Potential [1]: + (log Pe < −6.5)
−5.25	–	–	–	–	Farnesyl acetate	5.3	–	–
n.q.	–	–	–	n.q.	α-epi-7-epi-5-eudesmol	3.4	–	–

Compound	AerExt log Pe [1]	RootExt Te (%) ± SD 2 h [2]	AerExt Te (%) ± SD 2 h [2]	AerExt Te (%) ± SD 4 h [2]	RootExt log Pe [1]	log p ([3]; Table 1)	AerExt Te (%) ± SD 24 h [2]	also measured
O=c1cc(-c2ccc(O)cc2)oc2cc(O)cc(O)c12 [Apigenin]	–	–	4.2 ± 0.9%	5.1 ± 0.3%	n.q.	1.7	309.7 ± 93.0%	Papp at 4 h [1]: 97.7 ×10⁻⁶ cm/s
COc1ccc([C@@H]2CC(=O)c3c(O)cc(O[C@@H]4O[C@H](CO[C@@H]5O[C@@H](C)[C@H](O)[C@@H](O)[C@H]5O)[C@@H](O)[C@H](O)[C@H]4O)cc3O2)cc1O [Hesperidin]	n.q.	n.q.	n.q.	n.q.	n.q.	−1.1	n.q.	RootExt Te (%) ± SD 4 h [2]: n.q.; RootExt Te (%) ± SD 24 h [2]: n.q.
COc1cc([C@@H]2OC[C@@H]3[C@H]2CO[C@H]3c2cc(OC)c(O[C@@H]3O[C@H](CO)[C@@H](O)[C@H](O)[C@H]3O)c(OC)c2)cc(OC)c1O[C@@H]1O[C@H](CO)[C@@H](O)[C@H](O)[C@H]1O [Syringaresinol diglucoside]	n.q.	–	n.q.	n.q.	n.q.	−1.4	n.q.	–
C/C1=C\CC/C(C)=C/CC(C)(C)/C=C/C1 [α-humulene]	n.q.	–	–	–	n.q.	4.5	–	–
C/C=C\c1cc(OC)c(OC)cc1OC [β-asarone]	–	–	7.5 ± 2.0%	15.0 ± 7.3%	n.q.	3.0	15.5 ± 1.0%	–
